Where two headings read alike, the source gives them in different places.
Target: human H-PGDS (Homo sapiens (Human), UniProt O60760)
Experiment: Hematopoietic prostaglandin D synthase (H-PGDS) inhibiting action
Format: biochemical
Settings: for H-PGDS inhibition rate (%) / inhibition at 0.1 µM: compound at 0.1 μM, relative to the control group; for inhibition at 0.1 µM: read-out: H-PGDS inhibition rate (%)
Description: More specifically, the reaction mixture (49 μL) containing 100 mM Tris-HCl (pH 8.0), 1 mM reduced glutathione, 0.1 mg/mL γ-globulin, and human H-PGDS (q.s.), and a compound (final concentration: 0.01-100 μM) was preincubated at 25° C. for 5 minutes. Note that a DMSO solution (final concentration: 1%) was added to the solvent control group. Subsequently, 1 μL of [14C] prostaglandin H2 (final concentration: 10 μM) was added to start the reaction. One minute after the start of the reaction, 250 μL of a reaction stopper solution (diethylether/methanol/1 M citric acid (30/4/1) at a temperature of −20° C. was added to stop the reaction. After the reaction was stopped, 50 μL of the upper layer portion (organic solvent phase) was applied to a TLC plate and developed at −20° C. for 45 minutes (developing solvent: diethylether/methanol/acetic acid (90/2/1)). After drying the TLC plate, the TLC plate was exposed to an imaging plate for 1 to 24 hours, and the radioactivity corresponding to prostaglandin D2 (PGD2) was analyzed using an image analyzer (produced by Fujifilm Corporation).

[1] = human H-PGDS, [14C] prostaglandin H2 10 μM
[2] = human H-PGDS, [14C] prostaglandin H2 10 μM, read-out: IC50

Chain of human H-PGDS (O60760 whole entry): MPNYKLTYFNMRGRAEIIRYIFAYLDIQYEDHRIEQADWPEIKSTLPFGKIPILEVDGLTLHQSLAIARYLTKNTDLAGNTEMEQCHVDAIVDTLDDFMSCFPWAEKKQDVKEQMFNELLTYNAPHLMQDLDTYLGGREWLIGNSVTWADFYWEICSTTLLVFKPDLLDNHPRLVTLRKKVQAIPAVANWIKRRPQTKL

For “4-((1-ethylpyrrol-2-yl)-carbonyl)-N-(4-(4-morpholin-1-yl-carbonylpiperidin-1-yl)-phenyl)-1-piperazinecarboxamide [Example 13]”, which “H-PGDS inhibition rate (%)” value [1] is on record?
Its value is 51.8%.

And the IC50 [2]?
Its IC50 is 91 nM.

With “4-((1-methylindol-2-yl)-carbonyl)-N-(4-(4-morpholin-1-yl-carbonylpiperidin-1-yl)-phenyl)-1-piperazinecarboxamide [Reference Example 12]” as the compound, how does the “H-PGDS inhibition rate (%)” value [1] read?
Its value is −0.4%.

And the IC50 [2]?
The IC50 was over 1000 nM.

Which “H-PGDS inhibition rate (%)” value [1] does the source give for “4-((1-methylpyrrol-2-yl)-carbonyl)-N-(4-(4-(3-(1,2,4-triazol-1-yl-propyl)piperidin-1-yl)-phenyl)-1-piperazinecarboxamide [Example 11]” here?
The value was 71.3%.

What about the IC50 [2] of the same compound?
Its IC50 is 46 nM.

With “4-((((1-methylpyrrol-2-yl)-carbonyl)-1-piperazinyl)carbonyl)amino-4-phenylpiperidine-4-carboxylic acid [Example 2]” as the compound, how does the “H-PGDS inhibition rate (%)” value [1] read?
The value was 53.7%.

And the IC50 [2]?
Its IC50 is 86 nM.

With `Cn1cccc1C(=O)N1CCN(C(=O)Nc2ccc(N3CCC(O)CC3)cc2)CC1` [Example 1, N-(4-(4-hydroxypiperidin-1-yl)-phenyl)-4-((1-methylpyrrol-2-yl)-carbonyl)-1-piperazinecarboxamide] as the compound, how does the inhibition at 0.1 µM [1] read?
The inhibition at 0.1 µM was 62.2%.

What about the IC50 [2] of the same compound?
The IC50 was 58 nM.

With `Cn1cccc1C(=O)N1CCN(C(=O)Nc2ccc(N3CCC(CN4CCOCC4)CC3)cc2)CC1` [Example 4, 4-((1-methylpyrrol-2-yl)-carbonyl)-N-(4-(4-morpholinomethylpiperidin-1-yl)-phenyl)-1-piperazinecarboxamide] as the compound, how does the inhibition at 0.1 µM [1] read?
Its inhibition at 0.1 µM is 61.5%.

`Cn1cccc1C(=O)N1CCN(C(=O)Nc2ccc(N3CCC(CCn4cncn4)C3)cc2)CC1` (stereo not drawn) [Example 5, 4-((1-methylpyrrol-2-yl)-carbonyl)-N-(4-(3-(2-(1,2,4-triazol-1-yl)-ethyl)pyrrolidin-1-yl)-phenyl)-1-piperazinecarboxamide] was tested. Which inhibition at 0.1 µM [1] did it give?
Its inhibition at 0.1 µM is 55.5%.

For `Cn1cccc1C(=O)N1CCN(C(=O)Nc2ccc(N3CCC(CCN4CCOCC4)CC3)cc2)CC1` [Example 6, 4-((1-methylpyrrol-2-yl)-carbonyl)-N-(4-(4-morpholinoethylpiperidin-1-yl)-phenyl)-1-piperazinecarboxamide], which inhibition at 0.1 µM [1] is on record?
Its inhibition at 0.1 µM is 68.3%.

For `Cn1cccc1C(=O)N1CCN(C(=O)Nc2ccc(N3CCC(CCn4ccnn4)CC3)cc2)CC1` [Example 7, 4-((1-methylpyrrol-2-yl)-carbonyl)-N-(4-(4-(2-(1,2,3-triazol-1-yl)-ethyl)piperidin-1-yl)-phenyl)-1-piperazinecarboxamide], which inhibition at 0.1 µM [1] is on record?
Its inhibition at 0.1 µM is 66.7%.

Which results are given for `Cn1cccc1C(=O)N1CCN(C(=O)Nc2ccc(N3CCC(CCn4cncn4)CC3)cc2)CC1` [Example 8, 4-((1-methylpyrrol-2-yl)-carbonyl)-N-(4-(4-(2-(1,2,4-triazol-1-yl)-ethyl)piperidin-1-yl)-phenyl)-1-piperazinecarboxamide]?
inhibition at 0.1 µM [1]: 58.9%; IC50 [2]: 62 nM

`Cc1nc(C)n(CCC2CCN(c3ccc(NC(=O)N4CCN(C(=O)c5cccn5C)CC4)cc3)CC2)n1` [Example 9, 4-((1-methylpyrrol-2-yl)-carbonyl)-N-(4-(4-(2-(3,5-dimethyl-1,2,4-triazol-1-yl)-ethyl)piperidin-1-yl)-phenyl)-1-piperazinecarboxamide] was tested. Which inhibition at 0.1 µM [1] did it give?
The inhibition at 0.1 µM was 54.8%.

How did the inhibition at 0.1 µM [1] turn out when `Cn1cccc1C(=O)N1CCN(C(=O)Nc2ccc(N3CCC(CCn4cccn4)CC3)cc2)CC1` [Example 10, 4-((1-methylpyrrol-2-yl)-carbonyl)-N-(4-(4-(2-(pyrazol-1-yl)-ethyl)piperidin-1-yl)-phenyl)-1-piperazinecarboxamide] was run?
The inhibition at 0.1 µM was 74.3%.

How did the inhibition at 0.1 µM [1] turn out when `Cn1cccc1C(=O)N1CCN(C(=O)Nc2ccc(N3CCC(CCCn4ccnn4)CC3)cc2)CC1` [Example 12, 4-((1-methylpyrrol-2-yl)-carbonyl)-N-(4-(4-(3-(1,2,3-triazol-1-yl)-propyl)piperidin-1-yl)-phenyl)-1-piperazinecarboxamide] was run?
The inhibition at 0.1 µM was 72.7%.

Which inhibition at 0.1 µM [1] does the source give for `Cn1cccc1C(=O)N1CCN(C(=O)Nc2ccc(N3CCC(C(=O)N4CCCCC4)CC3)cc2)CC1` [Example 14, 4-((1-methylpyrrol-2-yl)-carbonyl)-N-(4-(4-piperidin-1-yl-carbonylpiperidin-1-yl)-phenyl)-1-piperazinecarboxamide] here?
The inhibition at 0.1 µM was 73.6%.

`CN1CCN(C(=O)C2CCN(c3ccc(NC(=O)N4CCN(C(=O)c5cccn5C)CC4)cc3)CC2)CC1` [Example 15, 4-((1-methylpyrrol-2-yl)-carbonyl)-N-(4-(4-(4-methylpiperazin-1-yl-carbonyl)piperidin-1-yl)-phenyl)-1-piperazinecarboxamide] was tested. Which inhibition at 0.1 µM [1] did it give?
Its inhibition at 0.1 µM is 61.3%.

How did the inhibition at 0.1 µM [1] turn out when `Cn1cccc1C(=O)N1CCN(C(=O)Nc2ccc(N3CCC(C(=O)NCCN4CCOCC4)CC3)cc2)CC1` [Example 16, 4-((1-methylpyrrol-2-yl)-carbonyl)-N-(4-(4-(2-morpholinoethylcarbamoyl)piperidin-1-yl)-phenyl)-1-piperazinecarboxamide] was run?
Its inhibition at 0.1 µM is 61.1%.

`Cn1cccc1C(=O)N1CCN(C(=O)Nc2ccc(N3CCC(C(=O)NCc4cccnc4)CC3)cc2)CC1` [Example 17, 4-((1-methylpyrrol-2-yl)-carbonyl)-N-(4-(4-(pyridin-3-ylmethylcarbamoyl)piperidin-1-yl)-phenyl)-1-piperazinecarboxamide] was tested. Which inhibition at 0.1 µM [1] did it give?
Its inhibition at 0.1 µM is 61.7%.

Which “H-PGDS inhibition rate (%)” value [1] does the source give for `Cn1ccc(C(=O)N2CCN(C(=O)Nc3ccc(N4CCC(C(=O)N5CCOCC5)CC4)cc3)CC2)c1` [Reference Example 3, 4-((1-methylpyrrol-3-yl)-carbonyl)-N-(4-(4-morpholin-1-yl-carbonylpiperidin-1-yl)-phenyl)-1-piperazinecarboxamide] here?
Its value is −4.8%.

And the IC50 [2]?
Its IC50 is over 1000 nM.

What does the source list for `O=C(Nc1ccc(N2CCC(C(=O)N3CCOCC3)CC2)cc1)N1CCN(C(=O)c2cccs2)CC1` [Reference Example 4, 4-((thiophen-2-yl)-carbonyl)-N-(4-(4-morpholin-1-yl-carbonylpiperidin-1-yl)-phenyl)-1-piperazinecarboxamide]?
H-PGDS inhibition rate (%) [1]: 18.0%; IC50 [2]: 340 nM

Which results are given for `O=C(Nc1ccc(N2CCC(C(=O)N3CCOCC3)CC2)cc1)N1CCN(C(=O)c2ccsc2)CC1` [Reference Example 5, 4-((thiophen-3-yl)-carbonyl)-N-(4-(4-morpholin-1-yl-carbonylpiperidin-1-yl)-phenyl)-1-piperazinecarboxamide]?
H-PGDS inhibition rate (%) [1]: 9.4%; IC50 [2]: 732 nM

Which “H-PGDS inhibition rate (%)” value [1] does the source give for `O=C(Nc1ccc(N2CCC(C(=O)N3CCOCC3)CC2)cc1)N1CCN(C(=O)c2ccco2)CC1` [Reference Example 6, 4-((furan-2-yl)-carbonyl)-N-(4-(4-morpholin-1-yl-carbonylpiperidin-1-yl)-phenyl)-1-piperazinecarboxamide] here?
Its value is −2.7%.

And the IC50 [2]?
The IC50 was over 1000 nM.

What does the source list for `O=C(Nc1ccc(N2CCC(C(=O)N3CCOCC3)CC2)cc1)N1CCN(C(=O)c2ccoc2)CC1` [Reference Example 7, 4-((furan-3-yl)-carbonyl)-N-(4-(4-morpholin-1-yl-carbonylpiperidin-1-yl)-phenyl)-1-piperazinecarboxamide]?
H-PGDS inhibition rate (%) [1]: −4.2%; IC50 [2]: > 1000 nM

With `O=C(Nc1ccc(N2CCC(C(=O)N3CCOCC3)CC2)cc1)N1CCN(C(=O)c2ccno2)CC1` [Reference Example 8, 4-((isoxazol-5-yl)-carbonyl)-N-(4-(4-morpholin-1-yl-carbonylpiperidin-1-yl)-phenyl)-1-piperazinecarboxamide] as the compound, how does the “H-PGDS inhibition rate (%)” value [1] read?
The value was −6.6%.

What about the IC50 [2] of the same compound?
The IC50 was over 1000 nM.

Which results are given for `Cn1ccnc1C(=O)N1CCN(C(=O)Nc2ccc(N3CCC(C(=O)N4CCOCC4)CC3)cc2)CC1` [Reference Example 9, 4-((1-methylimidazol-2-yl)-carbonyl)-N-(4-(4-morpholin-1-yl-carbonylpiperidin-1-yl)-phenyl)-1-piperazinecarboxamide]?
H-PGDS inhibition rate (%) [1]: −2.8%; IC50 [2]: > 1000 nM

With `O=C(Nc1ccc(N2CCC(C(=O)N3CCOCC3)CC2)cc1)N1CCN(C(=O)C2CCCC2)CC1` [Reference Example 10, 4-(cyclopentylcarbonyl)-N-(4-(4-morpholin-1-yl-carbonylpiperidin-1-yl)-phenyl)-1-piperazinecarboxamide] as the compound, how does the “H-PGDS inhibition rate (%)” value [1] read?
The value was −2.2%.

What about the IC50 [2] of the same compound?
The IC50 was over 1000 nM.

`O=C(Nc1ccc(N2CCC(C(=O)N3CCOCC3)CC2)cc1)N1CCN(C(=O)c2ccccc2)CC1` [Reference Example 11, 4-(benzoyl)-N-(4-(4-morpholin-1-yl-carbonylpiperidin-1-yl)-phenyl)-1-piperazinecarboxamide] was tested. Which “H-PGDS inhibition rate (%)” value [1] did it give?
The value was 15.8%.

What about the IC50 [2] of the same compound?
Its IC50 is 437 nM.

With `O=C(Nc1ccc(C(F)(F)F)cc1)N1CCN(C(=O)c2cccc(F)n2)CC1` [Reference Example 18, 4-(6-fluoropyridine-2-carbonyl)piperazine-1-carboxylic acid-(4-trifluoromethylphenyl)amide] as the compound, how does the IC50 read?
The IC50 was over 1000 nM.

Source: patent US8865714B2, “Piperazine compound capable of inhibiting prostaglandin D synthase” (Taiho Pharmaceutical Co., Ltd., priority 2009, dated 2014)
